Experimental data published in ChEMBL document CHEMBL5365467 (J Med Chem, 2023).

Assays:
[1] = Cmax in non human primate at 2 mg/kg, po measured upto 24 hrs by LC-MS/MS analysis; type: ADME, organism-based; set-up: dose 2 mg/kg, time < 24 hrs, route po; conditions: primates, in vivo
[2] = Metabolic stability in rat plasma assessed as half life measured after 2 hrs by LC-MS/MS analysis; type: ADME, cell-free
[3] = AUC (0 to t) in non human primate at 2 mg/kg, po measured upto 24 hrs by LC-MS/MS analysis; type: ADME, organism-based; set-up: time < 24 hrs, dose 2 mg/kg, route po; conditions: primates, in vivo
[4] = Tmax in Beagle dog at 10 mg/kg, po measured upto 24 hrs by LC-MS/MS analysis; type: ADME, organism-based, Canis lupus familiaris; conditions: in vivo
[5] = target: Protein cereblon/Androgen receptor (Homo sapiens, UniProt P10275+Q96SW2); test: PROTAC activity at AR/CRBN in AR-positive human VCaP cells assessed as induction of androgen receptor degradation measured at 24 hrs; type: cell-based; conditions: read-out: DC50
Protein cereblon/Androgen receptor (Homo sapiens, UniProt P10275+Q96SW2), sequence (P10275 whole entry): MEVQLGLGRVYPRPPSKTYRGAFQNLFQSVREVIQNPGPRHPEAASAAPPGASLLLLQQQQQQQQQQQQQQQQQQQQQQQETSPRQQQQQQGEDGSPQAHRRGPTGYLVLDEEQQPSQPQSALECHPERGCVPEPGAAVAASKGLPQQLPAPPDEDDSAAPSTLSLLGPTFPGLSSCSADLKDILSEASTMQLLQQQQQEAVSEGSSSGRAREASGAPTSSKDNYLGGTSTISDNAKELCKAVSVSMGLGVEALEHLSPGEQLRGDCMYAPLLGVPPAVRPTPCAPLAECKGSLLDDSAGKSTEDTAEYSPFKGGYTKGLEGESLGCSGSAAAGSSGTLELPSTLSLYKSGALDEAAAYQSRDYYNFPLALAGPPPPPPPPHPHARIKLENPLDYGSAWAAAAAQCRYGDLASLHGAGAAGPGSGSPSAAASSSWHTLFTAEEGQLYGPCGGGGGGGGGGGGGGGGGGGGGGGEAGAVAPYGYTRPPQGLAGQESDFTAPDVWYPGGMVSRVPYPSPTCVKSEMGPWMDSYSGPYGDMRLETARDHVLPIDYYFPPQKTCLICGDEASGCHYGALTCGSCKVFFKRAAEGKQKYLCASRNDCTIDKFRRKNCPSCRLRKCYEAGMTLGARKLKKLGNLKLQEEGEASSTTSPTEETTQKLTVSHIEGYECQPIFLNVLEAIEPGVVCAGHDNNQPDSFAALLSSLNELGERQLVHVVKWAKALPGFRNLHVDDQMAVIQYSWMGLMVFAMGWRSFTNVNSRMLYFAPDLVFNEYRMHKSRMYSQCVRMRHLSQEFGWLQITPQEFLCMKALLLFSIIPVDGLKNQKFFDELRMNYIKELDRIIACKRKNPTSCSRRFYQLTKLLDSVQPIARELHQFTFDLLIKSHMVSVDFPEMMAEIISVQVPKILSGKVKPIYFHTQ
Protein cereblon/Androgen receptor (Homo sapiens, UniProt P10275+Q96SW2), sequence (Q96SW2 whole entry): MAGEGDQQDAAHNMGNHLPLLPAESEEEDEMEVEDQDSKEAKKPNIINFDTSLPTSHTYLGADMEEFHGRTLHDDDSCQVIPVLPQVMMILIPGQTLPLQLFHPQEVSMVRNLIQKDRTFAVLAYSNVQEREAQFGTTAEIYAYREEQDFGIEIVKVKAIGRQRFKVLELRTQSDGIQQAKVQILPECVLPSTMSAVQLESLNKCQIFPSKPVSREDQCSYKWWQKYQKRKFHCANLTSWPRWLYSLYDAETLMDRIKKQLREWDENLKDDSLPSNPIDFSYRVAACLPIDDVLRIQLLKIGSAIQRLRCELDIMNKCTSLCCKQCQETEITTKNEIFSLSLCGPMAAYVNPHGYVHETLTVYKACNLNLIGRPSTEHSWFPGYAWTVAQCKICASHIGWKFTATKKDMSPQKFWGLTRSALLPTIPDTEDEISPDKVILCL

[6] = Cmax in ICR mouse at 5 mg/kg, po measured upto 24 hrs by LC-MS/MS analysis; type: ADME, organism-based; set-up: time < 24 hrs, dose 5 mg/kg, route po; conditions: in vivo
[7] = Metabolic stability in human plasma assessed as half life measured after 2 hrs by LC-MS/MS analysis; type: ADME, cell-free
[8] = AUC (0 to t) in ICR mouse at 5 mg/kg, po measured upto 24 hrs by LC-MS/MS analysis; type: ADME, organism-based; set-up: dose 5 mg/kg, time < 24 hrs, route po; conditions: in vivo
[9] = Metabolic stability in human plasma assessed as parent compound remaining measured after 120 mins by LC-MS/MS analysis; type: ADME, cell-free; conditions: read-out: Stability
[10] = Volume of distribution at steady state in ICR mouse at 2 mg/kg, iv measured upto 24 hrs by LC-MS/MS analysis; type: ADME, organism-based; conditions: in vivo, read-out: Vdss
in vivo [11] = conditions: Sprague-Dawley, rat, po, 5 mg/kg
VCaP [12] = test: Growth inhibition in human VCaP cells
[13] = Oral bioavailability in Beagle dog at 10 mg/kg measured upto 24 hrs by LC-MS/MS analysis; type: ADME, organism-based, Canis lupus familiaris; conditions: in vivo
[14] = Metabolic stability in non human primate plasma assessed as half life measured after 2 hrs by LC-MS/MS analysis; type: ADME, cell-free; conditions: primates
[15] = Metabolic stability in mouse liver microsome assessed as half life measured upto 45 mins in presence of NADPH by LC-MS/MS analysis; type: ADME; conditions: liver microsomes
[16] = Metabolic stability in dog liver microsome assessed as half life measured upto 45 mins in presence of NADPH by LC-MS/MS analysis; type: ADME, Canis lupus familiaris; conditions: liver microsomes
[17] = target: Protein cereblon/Androgen receptor (Homo sapiens, UniProt P10275+Q96SW2, T878A); test: PROTAC activity at AR T878A mutant/CRBN in human LNCaP cells assessed as induction of androgen receptor degradation measured at 24 hrs by Western blot analysis; type: cell-based
Protein cereblon/Androgen receptor (Homo sapiens, UniProt P10275+Q96SW2, T878A), sequence (P10275 whole entry T878A, stated change not applied): as the sequence (P10275 whole entry) above, with T878A counted along it
Protein cereblon/Androgen receptor (Homo sapiens, UniProt P10275+Q96SW2, T878A), sequence (Q96SW2 whole entry, stated change not applied): as the sequence (Q96SW2 whole entry) above

in vivo [18] = conditions: Sprague-Dawley, rat, po, 5 mg/kg; remark: listed apart in the source
VCaP [19] = test: Antitumor activity against human VCaP cells xenografted in CB17-SCID mouse assessed as tumor growth inhibition at 10 mg/kg, po administered for 21 days; type: functional; conditions: 504 h, time 21 day, read-out: TGI
[20] = Metabolic stability in rat liver microsome assessed as parent compound remaining measured at 120 mins in presence of NADPH by LC-MS/MS analysis; type: ADME; conditions: liver microsomes, read-out: Stability
VCaP [21] = test: Antitumor activity against human VCaP cells xenografted in CB17-SCID mouse assessed as tumor growth inhibition at 20 mg/kg, po administered for 21 days; conditions: 504 h, read-out: TGI
[22] = Clearance in non human primate at 1 mg/kg, iv measured upto 24 hrs by LC-MS/MS analysis; type: ADME, organism-based; conditions: primates, in vivo
[23] = Clearance in Sprague-Dawley rat at 2 mg/kg, iv measured upto 24 hrs by LC-MS/MS analysis; conditions: in vivo

Q: Which Cmax [1] does the source give for `C[C@H]1CC2(CCN(c3ccc(C(=O)N4CCC(CN5Cc6cc7c(cc6C5)C(=O)N(C5CCC(=O)NC5=O)C7=O)CC4)cc3)CC2)CN1c1ccc(C#N)c(Cl)c1` (stereo partly drawn) here?
A: Its Cmax is 1.52 µg/mL.

Q: What about the half-life [2] of the same molecule?
A: The half-life was > 2 h.

Q: What about the AUC(0-t) at 24 h [3] of the same molecule?
A: Its AUC(0-t) at 24 h is 10.3 µg·h/mL.

Q: What about the Tmax [4] of the same molecule?
A: The Tmax was 3 h.

Q: And the DC50 [5]?
A: Its DC50 is 0.1 nM.

Q: What about the Cmax [6] of the same molecule?
A: The Cmax was 9.12 µg/mL.

Q: What about the half-life [7] of the same molecule?
A: The half-life was > 2 h.

Q: And the AUC(0-t) at 24 h [8]?
A: The AUC(0-t) at 24 h was 85.2 µg·h/mL.

Q: And the remaining at 2 h [9]?
A: The remaining at 2 h was 69%.

Q: And the Vd [10]?
A: The Vd was 0.23 L/kg.

Q: And the bioavailability at 24 h (in vivo [11])?
A: Its bioavailability at 24 h is 44%.

Q: And the IC50 (VCaP [12])?
A: Its IC50 is 11.5 nM.

Q: What about the bioavailability [13] of the same molecule?
A: The bioavailability was 31%.

Q: And the half-life [14]?
A: Its half-life is > 2 h.

Q: What about the half-life at […] [15] of the same molecule?
A: Its half-life at […] is > 1 h.

Q: And the half-life at […] [16]?
A: The half-life at […] was > 1 h.

Q: What about the DC50 [17] of the same molecule?
A: The DC50 was 1.1 nM.

Q: What about the Cmax at 24 h (in vivo [18]) of the same molecule?
A: The Cmax at 24 h was 0.871 µg/mL.

Q: What about the inhibition in vivo at 10 mg/kg (VCaP [19]) of the same molecule?
A: The inhibition in vivo at 10 mg/kg was 50%.

Q: And the remaining at 2 h [20]?
A: The remaining at 2 h was 87%.

Q: And the inhibition in vivo at 20 mg/kg (VCaP [21])?
A: The inhibition in vivo at 20 mg/kg was 68%.

Q: And the clearance [22]?
A: Its clearance is 0.2 L/h/kg.

Q: And the clearance at 24 h [23]?
A: Its clearance at 24 h is 0.36 L/h/kg.
